# Assay results published in ChEMBL document CHEMBL1123608, “In vivo antitumor activity of 6-benzyl-1,3-benzodioxole derivatives against the P388, L1210, B16, and M5076 murine models” (1987).
# “And” between values parts separate entries of the source, which are not always exact repeats. Identical values can stand only once. The source made the active and inactive calls. The calls are words filed in the database; no cut-off is given here.
# What was measured:
# Mus musculus [1] = test: In vivo antitumor activity against the B16 melanoma cell line expressed as percent increase in life span; IA means inactive; assay type: functional, organism-based
# [2] = Ability to inhibit the dibutyryl-cAMP-induced change of an immature glioma cell to a mature, differentiated astrocyte by in vitro astrocytoma assay at 1 ug/mL dose (Experiment #1); value may range from 16 to 30; assay type: functional, Mus musculus
# Mus musculus [3] = test: Percent increase in life span (ILS) was measured on P388 cells which were inoculated intraperitoneally in CD2F1 mice; assay type: functional
# [4] = Ability to inhibit the dibutyryl-cAMP-induced change of an immature glioma cell to a mature, differentiated astrocyte by in vitro astrocytoma assay at 100 ug/mL dose (Experiment #2)value may range from 71 to 90; assay type: functional, Mus musculus
# Mus musculus [5] = test: In vivo antitumor activity against the L1210 leukemia cell line expressed as percent increase in life span; IA means inactive; assay type: functional, organism-based
# Mus musculus [6] = test: In vivo antitumor activity against the M5076 reticulum cell sarcoma expressed as percent increase in life span; IA means inactive; assay type: functional, organism-based
# [7] = Ability to inhibit the dibutyryl-cAMP-induced change of an immature glioma cell to a mature, differentiated astrocyte by in vitro astrocytoma assay at 1 ug/mL dose (Experiment #2) value may range from 16 to 30; assay type: functional, Mus musculus
# Mus musculus [8] = test: The percent increase in life span on P388 cells which were inoculated intraperitoneally in CD2F1 mice at 100 mg/kg dose placed at ranking order 2; assay type: functional; conditions: P388, ip, route intraperitoneal
# [9] = Ability to inhibit the dibutyryl-cAMP-induced change of an immature glioma cell to a mature, differentiated astrocyte by in vitro astrocytoma assay at 100 ug/mL dose (Experiment #1); value may range from 91 to up; assay type: functional, Mus musculus
# [10] = Ability to inhibit the dibutyryl-cAMP-induced change of an immature glioma cell to a mature, differentiated astrocyte by in vitro astrocytoma assay at 10 ug/mL dose (Experiment #2); value may range from 31 to 50; assay type: functional, Mus musculus
# [11] = Ability to inhibit the dibutyryl-cAMP-induced change of an immature glioma cell to a mature, differentiated astrocyte by in vitro astrocytoma assay at 10 ug/mL dose (Experiment #1); value may range from 31 to 50; assay type: functional, Mus musculus
# Mus musculus [12] = test: The percent increase in life span on P388 cells which were inoculated intraperitoneally in CD2F1 mice at 100 mg/kg dose placed at ranking order 1; assay type: functional; conditions: P388, ip, route intraperitoneal
# Mus musculus [13] = test: The percent increase in life span on P388 cells which were inoculated intraperitoneally in CD2F1 mice at 200 mg/kg dose placed at ranking order 1; assay type: functional; conditions: P388, ip, route intraperitoneal
# Mus musculus [14] = test: In vivo antitumor activity against the B16 melanoma cell line expressed as percent increase in life span at 100 mg/kg dose; assay type: functional
# Mus musculus [15] = test: In vivo antitumor activity against the B16 melanoma cell line expressed as percent increase in life span at 200 mg/kg dose; assay type: functional
# Mus musculus [16] = test: In vivo antitumor activity against the L1210 leukemia cell line expressed as percent increase in life span at 200 mg/kg dose; assay type: functional; conditions: for ILS: dose 200 mg/kg
# Mus musculus [17] = test: The percent increase in life span on P388 cells which were inoculated intraperitoneally in CD2F1 mice at 400 mg/kg dose placed at ranking order 2; assay type: functional; conditions: P388, ip, route intraperitoneal
# Mus musculus [18] = test: The percent increase in life span on P388 cells which were inoculated intraperitoneally in CD2F1 mice at 200 mg/kg dose placed at ranking order 3; assay type: functional; conditions: P388, ip, route intraperitoneal
# Mus musculus [19] = test: In vivo antitumor activity against the M5076 reticulum cell sarcoma expressed as percent increase in life span at 500 mg/kg dose; assay type: functional
# Mus musculus [20] = test: The percent increase in life span on P388 cells which were inoculated intraperitoneally in CD2F1 mice at 300 mg/kg dose placed at ranking order 4; assay type: functional; conditions: P388, ip, route intraperitoneal
# Mus musculus [21] = test: The percent increase in life span on P388 cells which were inoculated intraperitoneally in CD2F1 mice at 480 mg/kg dose placed at ranking order 1; assay type: functional; conditions: P388, ip, route intraperitoneal
# Mus musculus [22] = test: The percent increase in life span on P388 cells which were inoculated intraperitoneally in CD2F1 mice at 240 mg/kg dose placed at ranking order 2; assay type: functional; conditions: P388, ip, route intraperitoneal
# Mus musculus [23] = test: In vivo antitumor activity against the M5076 reticulum cell sarcoma expressed as percent increase in life span at 32 mg/kg dose; assay type: functional
# Mus musculus [24] = test: In vivo antitumor activity against the B16 melanoma cell line expressed as percent increase in life span at 8 mg/kg dose; assay type: functional
# Mus musculus [25] = test: In vivo antitumor activity against the L1210 leukemia cell line expressed as percent increase in life span at 8 mg/kg dose; assay type: functional
# Mus musculus [26] = test: In vivo antitumor activity against the B16 melanoma cell line determined as number of cured out of the number tested at 10 mg/kg dose ( out of 10 mice); assay type: functional
# Mus musculus [27] = species on record: Mus musculus; test: P388 activity determined as number of cured out of the number tested in 6 CD2F1 mice; assay type: functional
# Mus musculus [28] = test: In vivo antitumor activity against the L1210 leukemia cell line expressed as percent increase in life span at 4 mg/kg dose; assay type: functional
# Mus musculus [29] = test: Percent increase in life span (ILS) was measured on P388 cells which were inoculated intraperitoneally in CD2F1 mice at 16 mg/kg; assay type: functional; conditions: P388, ip, route intraperitoneal
# Mus musculus [30] = test: In vivo antitumor activity against the L1210 leukemia cell line determined as number of cured out of the number tested at 4 mg/kg dose ( out of 10 mice); assay type: functional
# Mus musculus [31] = test: In vivo antitumor activity against the L1210 leukemia cell line determined as number of cured out of the number tested at 8 mg/kg dose ( out of 8 mice); assay type: functional
# Mus musculus [32] = test: In vivo antitumor activity against the B16 melanoma cell line determined as number of cured out of the number tested at 8 mg/kg dose ( out of 6 mice); assay type: functional
# Mus musculus [33] = test: In vivo antitumor activity against the B16 melanoma cell line expressed as percent increase in life span at 10 mg/kg dose; assay type: functional
# [34] = Ability to inhibit the dibutyryl-cAMP-induced change of an immature glioma cell to a mature, differentiated astrocyte by in vitro astrocytoma assay at 10 ug/mL dose (Experiment #2); value may range from 0 to 5; assay type: functional, Mus musculus
# [35] = Ability to inhibit the dibutyryl-cAMP-induced change of an immature glioma cell to a mature, differentiated astrocyte by in vitro astrocytoma assay at 1 ug/mL dose (Experiment #1); value may range from 0 to 5; assay type: functional, Mus musculus
# [36] = Ability to inhibit the dibutyryl-cAMP-induced change of an immature glioma cell to a mature, differentiated astrocyte by in vitro astrocytoma assay at 10 ug/mL dose (Experiment #1); value may range from 6 to 15; assay type: functional, Mus musculus
# [37] = Ability to inhibit the dibutyryl-cAMP-induced change of an immature glioma cell to a mature, differentiated astrocyte by in vitro astrocytoma assay at 1 ug/mL dose (Experiment #2); value may range from 0 to 5; assay type: functional, Mus musculus
# [38] = Ability to inhibit the dibutyryl-cAMP-induced change of an immature glioma cell to a mature, differentiated astrocyte by in vitro astrocytoma assay at 100 ug/mL dose (Experiment #1); value may range from 16 to 30; assay type: functional, Mus musculus
# [39] = Ability to inhibit the dibutyryl-cAMP-induced change of an immature glioma cell to a mature, differentiated astrocyte by in vitro astrocytoma assay at 100 ug/mL dose (Experiment #2); value may range from 16 to 30; assay type: functional, Mus musculus
# Mus musculus [40] = test: The percent increase in life span on P388 cells which were inoculated intraperitoneally in CD2F1 mice at 100 mg/kg dose placed at ranking order 4; assay type: functional; conditions: P388, ip, route intraperitoneal
# Mus musculus [41] = test: In vivo antitumor activity against the B16 melanoma cell sarcoma expressed as percent increase in life span; IA means inactive; assay type: functional, organism-based
# Mus musculus [42] = test: The percent increase in life span on P388 cells which were inoculated intraperitoneally in CD2F1 mice at 200 mg/kg dose placed at ranking order 2; assay type: functional; conditions: P388, ip, route intraperitoneal
# Mus musculus [43] = test: The percent increase in life span on P388 cells which were inoculated intraperitoneally in CD2F1 mice at 400 mg/kg dose placed at ranking order 1; assay type: functional; conditions: P388, ip, route intraperitoneal
# Mus musculus [44] = test: The percent increase in life span on P388 cells which were inoculated intraperitoneally in CD2F1 mice at 400 mg/kg dose placed at ranking order 3; assay type: functional; conditions: P388, ip, route intraperitoneal
# Mus musculus [45] = test: The percent increase in life span on P388 cells which were inoculated intraperitoneally in CD2F1 mice at 400 mg/kg (tested in the same control) dose placed at ranking order 4; assay type: functional; conditions: P388, ip, route intraperitoneal
structure (smiles),measurement,setting,value
CCOc1cc2c(cc1C(C)c1ccc(OC)cc1)OCO2 (centres undefined),ILS,Mus musculus [1],inactive
same,Astrocyte reversal,[2],30%
same,ILS,Mus musculus [3],25%
same,Astrocyte reversal,[4],90%
same,ILS,Mus musculus [5],inactive
same,ILS,Mus musculus [6],inactive
same,Astrocyte reversal,[7],30%
same,ILS at 100 mg/kg,Mus musculus [8],23%
same,Astrocyte reversal,[9],91%
same,Astrocyte reversal,[10],50%
same,Astrocyte reversal,[11],50%
same,ILS at 100 mg/kg,Mus musculus [12],25%
CCOc1ccc(C(C)c2cc3c(cc2OC)OCO3)cc1 (centres undefined),ILS at 200 mg/kg,Mus musculus [13],78%
same,ILS,Mus musculus [3],78%
same,ILS at 100 mg/kg,Mus musculus [14],29%
same,ILS at 200 mg/kg,Mus musculus [15],42%
same,ILS,Mus musculus [16],50% and 24%
same,ILS at 400 mg/kg,Mus musculus [17],61%
same,ILS at 200 mg/kg,Mus musculus [18],56%
same,ILS,Mus musculus [19],49% and 27%
same,ILS at 300 mg/kg,Mus musculus [20],31%
CCOc1cc2c(cc1C(C)(C)c1ccc(OC)cc1)OCO2,ILS at 480 mg/kg,Mus musculus [21],35%
same,ILS,Mus musculus [3],35%
same,ILS at 240 mg/kg,Mus musculus [22],25%
COc1cc([C@@H]2c3cc4c(cc3[C@@H](O[C@@H]3O[C@@H]5CO[C@@H](C)O[C@H]5[C@H](O)[C@H]3O)[C@H]3COC(=O)[C@H]23)OCO4)cc(OC)c1O [ETOPOSIDE],ILS at 32 mg/kg,"Mus musculus [23]; Mus musculus, M5076, dose 32 mg/kg",87%
same,ILS,Mus musculus [23]; dose 32 mg/kg,72%
same,ILS at 8 mg/kg,Mus musculus [24],> 176%
same,ILS at 8 mg/kg,Mus musculus [25],> 511%
same,No. of cures,Mus musculus [26],6
same,No. of cures,Mus musculus [27],3
same,ILS at 4 mg/kg,Mus musculus [28],118%
same,ILS at 16 mg/kg,Mus musculus [29],219%
same,No. of cures,Mus musculus [30],2
same,No. of cures,Mus musculus [31],4
same,No. of cures,Mus musculus [32],3
same,ILS at 10 mg/kg,Mus musculus [33],> 185%
COc1ccc(C(C)c2cc3c(cc2OC)OCO3)cc1 (centres undefined),ILS,Mus musculus [1],inactive
same,ILS,Mus musculus [3],78%
same,Astrocyte reversal,[34],5%
same,ILS,Mus musculus [5],inactive
same,ILS,Mus musculus [6],inactive
same,Astrocyte reversal,[35],5%
same,Astrocyte reversal,[36],15%
same,Astrocyte reversal,[37],5%
same,Astrocyte reversal,[38],30%
same,ILS at 100 mg/kg,Mus musculus [8],76%
same,ILS at 200 mg/kg,Mus musculus [18],74%
same,Astrocyte reversal,[39],30%
same,ILS at 100 mg/kg,Mus musculus [12],78%
same,ILS at 100 mg/kg,Mus musculus [40],53%
COc1cc(C(C)c2cc3c(cc2OCCO)OCO3)cc(OC)c1OC (centres undefined),ILS,Mus musculus [41],inactive
same,ILS,Mus musculus [3],80%
same,ILS at 200 mg/kg,Mus musculus [42],66%
same,ILS,Mus musculus [6],inactive
same,ILS at 200 mg/kg,"Mus musculus [16]; Mus musculus, L1210, dose 200 mg/kg",43%
same,ILS,Mus musculus [16],33%
same,ILS at 400 mg/kg,Mus musculus [43],80%
same,ILS at 400 mg/kg,Mus musculus [44],61%
same,ILS at 400 mg/kg,Mus musculus [45],49%
